# What was measured:
# [1] = Pharmacokinetic study in SD rats, 2-Oxo-clopidogrel in plasma by LC/MS/MS; format: in vivo; details: 2-Oxo-clopidogrel in plasma, SD rats, single dose at same molar amount (Table 3: iv.; text: gavage), n = 6, mean ± SD
# Excerpt: After being administered via single gavage at the same molar amount, the pharmacokinetic characteristics of each compound were investigated, and the main pharmacokinetic parameters were compared.
# Each test compound was accurately weighed separately into a clean drug container, dissolved with appropriate amount of Solutol, shaken by vortex, added with purified water, ultrasonicated, and shaken by vortex until the compound was completely dissolved. All the formulations were freshly prepared on the day of administration.
# Thirty healthy adult SD rats were administered via gavage.
# Grouping and Fasting: SD rats were randomly grouped, with 6 rats per group, and administered with the corresponding compounds via gavage according to Table 3.
# Sample Collection and Processing: 0.2 ml of blood was collected at different time points of before (0 h) and 5 min, 15 min, 30 min, 1 h, 2 h, 4 h, 8 h, and 24 h after the administration. After the anticoagulation with EDTA-K2 was completed, the blood was centrifuged at 4° C. for 5 min, and then the plasma was separated and stored at −80° C. for later measurement.
# Measurement: The blood drug concentration of 2-Oxo-clopidogrel in all PK plasma samples was measured by LC/MS/MS method, and the pharmacokinetic parameters of individual compounds were calculated by using software WinNonlin 7.2.
# [2] = Influencing factor test (high temperature, high humidity, light); format: physicochemical
# Method: Test Methods: The samples of the compound 2 and comparative example 2 (Vicagrel) were weighed and placed in weighing bottles, respectively, and the weighing bottles were placed under the conditions of high temperature (60° C.), high humidity (RH 80%), and light (5000 Lux), respectively.
# rabbit blood cells = experiment: In vitro hemolysis test; format: cell-based; details: compound 2 injection, 2% red blood cell suspension
# Method: One Adult Big White-Eared Rabbit (Male)
# (1) After the rabbit was anesthetized by injection of sodium pentobarbital via the marginal ear vein at about 30 mg/kg, about 20 ml of blood was collected from the heart into an appropriate container.
# (2) A stirrer (or glass bead) was placed in the container, the blood was stirred at a slow speed for a few minutes to remove the fibrinogen in the blood so as to obtain defibrinated blood.
# (3) About 10 times the amount of physiological saline was added, mixed evenly by shaking and aliquoted into centrifuge tubes. The tubes were centrifuged at 1000 to 2000 rpm for 15 min (the rotational speed and time for centrifugation could be adjusted according to the post-centrifugation situation due to the difference of centrifuge tubes in size), and then the supernatants were removed.
# (5) The obtained red blood cells were prepared into a 2% suspension with physiological saline.
# [3] = test system: ADP-induced platelet aggregation in rats; experiment: Antiplatelet aggregation effect: ADP-induced platelet aggregation in PRP of rats after iv administration; format: in vivo; details: single iv at the same molar dose, blood 3 h after administration, ADP final 20 μM
# Excerpt: 1. Test objective: Evaluation and comparison of the antiplatelet aggregation treatment effect of each compound after administration at the same molar amount
# 70 rats were randomly and evenly grouped into 7 groups, i.e., solvent control group, comparative example 1 (2-Oxo-clopidogrel) group, comparative example 2 (Vicagrel) group, compound 1 group, compound 2 group, compound 7 group and compound 8 group.
# Rats were anesthetized by intraperitoneal injection of 1.5% sodium pentobarbital.
# The anesthetized animals were transferred to an operating platform.
# The rats were injected with anesthetic, and fixed on the operating platform in a supine position after the whole body of the rat became soft. After routine disinfection, the abdomen of the rat was incised along the abdominal midline using surgical scissors to open the abdominal cavity. The adipose tissue around the blood vessels was gently separated with a small forceps, and the excess adipose tissue covering the blood vessels was then wiped and removed with the cotton ball to make the blood vessels clearly visible (the abdominal aorta is located anterior to the vertebral column, and the abdominal vein appears thicker and darker in color than the abdominal aorta). The blood vessel was first fixed to prevent it from moving as much as possible. The left thumb and index finger fixed the adipose tissue and other organs on both sides of the blood vessel, while the ring finger pressed on the blood vessel at the upper end of the needle insertion point to lower the blood pressure, which can prevent blood spurting. The puncture needle was held with the right hand, with the bevel of the needle tip facing downward. The needle was inserted at an angle of about 30 degrees and advanced towards the heart to a suitable depth of about 5 mm. Once the blood had started to enter the needle via its tip, the other end of the blood collection needle was inserted into the vacuum tube. After the insertion of needle, the needle tip could be clamped with a hemostatic clip to prevent it from puncturing the blood vessel if the rat struggled due to insufficient anesthesia.
# Three hours after the administration, the rats were anesthetized with sodium pentobarbital. Then blood was collected from the abdominal aorta, added with 3.8% sodium citrate (1:9) as an anticoagulant, mixed evenly and centrifuged at 200 g for 10 min. The supernatant was harvested to obtain the platelet-rich plasma (PRP), and the residual plasma was then centrifuged at 1600 g for 15 min to obtain the resulting supernatant as platelet-poor plasma (PPP).
# Platelet aggregation rate was measured using a platelet aggregometer (model: Agg RAM, Helena, USA). The PPPs corresponding to the PRPs to be tested in each channel were first used to correct the light transmission, and the PPPs were removed after the correction. A cuvette added with 225 μl of PRP to be tested was then placed in each channel, and added with a stirrer, then ADP (with a final concentration of 20 μM). The platelet aggregometer immediately began to measure the platelet aggregation rate.
# [4] = test system: ear marginal vein of the rabbit; experiment: Vascular irritation assay; format: in vivo
# Method: Four Japanese Big-Ear White Rabbit (about 2 kg), 2♀/2♂ (2 Female/2 Male)
# The intra-individual left/right comparison method was used. The compound 2 low dose injection and compound 2 high dose injection groups were set, with 2 rabbits in each group, half male and half female. The compound 2 injections were administered by injection into the ear marginal veins of right ears of the rabbits in the compound 2 low and high dose groups, with administration doses of 2.5 mg/kg and 7.5 mg/kg, respectively, and with the same administration volume of 5 ml/kg; and the corresponding administration concentrations were 0.5 mg/ml and 1.5 mg/ml, respectively. The same administration volume of sodium chloride injection as the negative control was administered by injection into the ear marginal veins of left ears of the rabbits in the compound 2 low and high dose groups. The administration was carried out by intravenous infusion for 30 min. […] The administration was performed once daily for a total of 7 consecutive days.
# At 72 h and at the end of a 14-day recovery period after the final administration, half of the animals in each group […] were sacrificed, respectively. Marginal ear tissue samples were cut from the injection site and the proximal end of the marginal ear vein respectively and collected. The injection sites were observed by naked eyes for the response conditions to irritation. The obtained tissues were fixed with 10% neutral formalin and conventionally sectioned for histopathological examination.
# Solubility study = format: physicochemical; details: 25° C. to 30° C.
# Method: Samples of the example compound 2 and comparative example 2 (Vicagrel) were accurately weighed. Under the condition of 25° C. to 30° C., 1 ml of physiological saline and 1 ml of a buffer (pH 1.2) were taken, and added with 10 mg of each compound, respectively. The compound 2 of the present disclosure had excellent solubility, which can satisfy the demand for the formulation into an injection with an effective concentration in clinical, while the solubility of the comparative example 2 was extremely low and it cannot satisfy the demand for injection, and the addition of additional solubilizer may pose potential safety risks.
# hERG potassium channel = target: T1, hERG potassium channel (Homo sapiens, UniProt Q12809); experiment: cell-based; details: manual patch-clamp, stably overexpressed hERG channel; read-out: IC50 (μM), inhibition of cardiac hERG potassium channel
# T1 construct: expressed in transfected cells
# Excerpt: Test Example 2: Effect of Compounds on Current in Stably Overexpressed hERG Channel
# T1 sequence (Q12809 whole entry): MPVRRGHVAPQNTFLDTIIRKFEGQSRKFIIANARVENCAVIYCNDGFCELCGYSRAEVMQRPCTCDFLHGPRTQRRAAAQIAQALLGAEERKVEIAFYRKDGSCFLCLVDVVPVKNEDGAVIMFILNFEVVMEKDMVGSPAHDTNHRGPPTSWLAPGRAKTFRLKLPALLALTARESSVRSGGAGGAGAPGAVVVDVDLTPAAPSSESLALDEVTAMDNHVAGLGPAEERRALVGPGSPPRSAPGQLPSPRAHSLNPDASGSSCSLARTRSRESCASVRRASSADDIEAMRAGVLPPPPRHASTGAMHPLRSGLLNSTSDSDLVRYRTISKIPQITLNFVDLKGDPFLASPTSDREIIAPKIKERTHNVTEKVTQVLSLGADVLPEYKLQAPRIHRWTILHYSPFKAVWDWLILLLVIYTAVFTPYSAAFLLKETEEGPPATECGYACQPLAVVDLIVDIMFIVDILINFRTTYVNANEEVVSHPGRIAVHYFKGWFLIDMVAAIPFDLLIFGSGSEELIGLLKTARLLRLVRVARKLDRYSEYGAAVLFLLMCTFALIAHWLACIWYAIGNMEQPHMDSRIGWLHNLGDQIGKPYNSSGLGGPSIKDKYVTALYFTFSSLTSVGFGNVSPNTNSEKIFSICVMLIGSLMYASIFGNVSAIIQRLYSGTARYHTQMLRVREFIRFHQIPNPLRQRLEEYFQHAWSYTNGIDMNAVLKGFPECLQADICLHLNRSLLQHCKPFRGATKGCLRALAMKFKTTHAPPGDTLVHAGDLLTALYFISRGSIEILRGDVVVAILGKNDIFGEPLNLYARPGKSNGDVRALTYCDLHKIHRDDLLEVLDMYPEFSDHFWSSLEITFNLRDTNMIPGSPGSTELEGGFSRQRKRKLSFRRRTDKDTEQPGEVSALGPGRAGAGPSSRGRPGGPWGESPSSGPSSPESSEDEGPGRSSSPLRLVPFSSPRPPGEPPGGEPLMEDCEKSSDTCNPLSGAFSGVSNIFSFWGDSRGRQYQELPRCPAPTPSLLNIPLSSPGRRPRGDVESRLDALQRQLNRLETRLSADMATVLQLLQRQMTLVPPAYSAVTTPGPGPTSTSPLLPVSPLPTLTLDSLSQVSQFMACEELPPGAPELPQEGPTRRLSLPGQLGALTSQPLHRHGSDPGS
smiles,measurement,setting,value
"COC(=O)[C@H](c1ccccc1Cl)N1CCc2sc(OC(=O)N3CCN(C)CC3)cc2C1.O=C(O)/C=C/C(=O)O [Compound 2, (S)-5-(1-(2-chlorophenyl)-2-methoxy-2-oxyethyl)-4,5,6,7-tetrahydrothieno[3,2-c]pyridin-2-yl 4-methylpiperazine-1-carboxylate fumarate]",AUC0-last (h*ng/ml),[1],110.15 ± 32.62** h*ng/ml
same,Cmax,[1],76.82 ± 21.69 ng/mL
same,T1/2,[1],1.98 ± 0.25 h
same,Tmax,[1],0.45 ± 0.13 h
same,"change in content, appearance and shape","[2]; 10 days under each of high temperature, high humidity and light",little change in content and no obvious change in appearance and shape
same,"content, Day 0",[2]; Day 0,98.39%
same,"content, High humidity (Day 10)","[2]; high humidity (RH 80%), 10 days",97.83%
same,"content, High temperature (Day 10)","[2]; high temperature (60° C.), 10 days",97.84%
same,"content, Light (Day 10)","[2]; light (5000 Lux), 10 days",96.09%
same,hemolysis of rabbit blood cells,rabbit blood cells; high concentration 2.5 mg/ml,neither the compound 2 injection at low concentration (0.5 mg/ml) nor the compound 2 injection at high concentration (2.5 mg/ml) caused hemolysis
same,hemolysis of rabbit blood cells,rabbit blood cells; low concentration 0.5 mg/ml,neither the compound 2 injection at low concentration (0.5 mg/ml) nor the compound 2 injection at high concentration (2.5 mg/ml) caused hemolysis
same,Platelet aggregation rate (%),[3]; solvent control 76.06 ± 3.29,21.18 ± 8.51 %
same,Platelet aggregation rate (%),"[3]; solvent control 76.06 ± 3.29, listed as compound 2",21.18±8.51%
same,vascular irritation effect on the ear marginal vein of the rabbit (overall determination),[4]; high concentration 1.5 mg/ml,no vascular irritation effect
same,observation of ear marginal vein on the administered side at day 2 of the recovery period,"[4]; high concentration 1.5 mg/ml, naked eyes",congestion of the ear marginal vein on the administered side was observed by naked eyes
same,vascular irritation effect on the ear marginal vein of the rabbit (overall),"[4]; low concentration 0.5 mg/ml, observed by naked eyes",no vascular irritation effect
same,"Solubility, pH 1.2 buffer",Solubility study; 10 mg compound added to 1 ml buffer (pH 1.2),>10 mg
same,"Solubility, Physiological saline(1 ml)",Solubility study; 10 mg compound added to 1 ml physiological saline,>10 mg
same,IC50,hERG potassium channel,18.6 µM
